In patent EP4603504A1, “NOVEL CATHEPSIN K AND L INHIBITORS” (ECOLE POLYTECHNIQUE FEDERALE DE LAUSANNE (EPFL), priority 2024, dated 2025):
Values belong to the compound of their own block, whether it stands above or below them. Peptide text beside a SMILES is read from it.

Key:
[1] = tested on: panel of 7 different cysteine cathepsin proteases; test: FRET assays on a panel of cathepsins (selectivity); assay type: biochemical; conditions: profiled against five additional cathepsins (Fig. 1)
Text: The figures show. • Figure 1. […] A schematic representation of the structure of the NNPI is given to the left.

[2] = target: T1, CTSL (Homo sapiens, UniProt P07711); test: FRET assay on cathepsin L (CTSL); assay type: biochemical; conditions: substrate Z-Leu-Arg-AMC, inhibitor preincubated 30 minutes, n=3
T1 construct: purchased R&D systems 952-CY-010
Description: (§1) In brief, CTSK or CTSL was diluted to 20 µg/ml or 40 µg/ml respectively, in Assay Buffer (50 mM MES, 5 mM DTT, 1 mM EDTA, 0.005% (w/v) Brij-35, pH 6.0), and incubated on ice for 15 minutes. After activation, CTSK or CTSL was diluted to 0.02 µg/ml in Assay Buffer. The substrate peptide Z-Leu-Arg-AMC (R&D systems, cat #ES008) was then diluted to 20 µM in Assay buffer (40 µM for CTSL).
(§2) Next, 50 µl of the enzyme solution was loaded in a 96-well plate, inhibitors to be tested were added to the enzyme and incubated for 30 minutes, and then the reaction was started by adding 50 µl of the fluorogenic substrate. A substrate blank containing 50 µl of Assay Buffer and 50 µl of substrate without any cathepsin was included. Fluorescent emission was measured with SpectraMax iD3 (Molecular Devices) in kinetic mode for 60 minutes (excitation: 380 nm, emission: 460 nm).

[3] = target: T1, CTSL; test: FRET assay cathepsin L; assay type: biochemical; conditions: result in words, compared with other NNPIs (Fig 2h-j)
Description: as §1, §2
A library of 32 NNPIs was screened by FRET assay on CTSK and CTSL by using 384-well plates. For each of the amino acid positions from 2 to 7 in the original NNPI-E15 structure, 6 different amino acid substitutions were tested (A, L, T, W, E or R). The final concentrations of enzyme and substrate were the same as the ones described above for the respective FRET assays. The final reaction volume per well was 20 µl. The inhibitor concentration was 30 nM. Fluorescent emission was measured with a BioTek Neo HTS plate reader.

[4] = Solubility (remark in text, no method); assay type: physicochemical

T1 sequence (P07711 114-333): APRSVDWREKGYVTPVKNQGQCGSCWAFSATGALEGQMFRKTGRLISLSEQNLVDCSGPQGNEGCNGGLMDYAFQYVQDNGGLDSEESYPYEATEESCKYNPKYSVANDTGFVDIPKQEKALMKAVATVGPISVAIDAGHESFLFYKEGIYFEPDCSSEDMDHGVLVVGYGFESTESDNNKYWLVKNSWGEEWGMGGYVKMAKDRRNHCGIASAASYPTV

Compound: CC[C@H](C)[C@H](NC(=O)[C@@H](NC(=O)/C=C/CNC(=O)[C@H](CC(C)C)NC(=O)[C@H](CCCNC(=N)N)NC(=O)[C@H](CCCNC(=N)N)NC(=O)[C@@H](N)CCCCN)C(C)C)C(=O)N[C@@H](CCCNC(=N)N)C(N)=O [NNPI-F17, KRRL(Y)VIR] (HELM PEPTIDE1{K.R.R.L.[O=C(/C=C/CN[*:1])[*:2]].V.I.R.[am]}$$$$V2.0; N-terminus and C-terminus assumed)
- selectivity [1]: good selectivity

Compound: CC(C)C[C@H](NC(=O)[C@H](CCCNC(=N)N)NC(=O)[C@@H](N)CCCCN)C(=O)N[C@@H](Cc1c[nH]c2ccccc12)C(=O)NC/C=C/C(=O)N[C@H](C(=O)N[C@@H](CC(C)C)C(=O)N[C@@H](Cc1c[nH]c2ccccc12)C(N)=O)C(C)C [NNPI-G14, KRLW(Y)VLW] (HELM PEPTIDE1{K.R.L.W.[O=C(/C=C/CN[*:1])[*:2]].V.L.W.[am]}$$$$V2.0)
- IC50 [2]: 1.7 nM
- selectivity [1]: good selectivity

- inhibitory potency on CTSL [3]: most potent inhibitor
Compound: KRLW(Y)VMW [NNPI-G12] [listing 1 of 2 here]

- solubility [4]: poor
Compound: KRLW(Y)VMW [NNPI-G12] [listing 2 of 2 here]
